Columns and labels:
[1] = target: T1, Caspase-1 (Homo sapiens, UniProt P29466); assay: Caspase-1 activation in human RPE cells (Western blot p20, Caspalux substrate cleavage); assay type: cell-based; details: for Alu RNA-induced Caspase-1 substrate cleavage: Caspalux fluorescent substrate
T1 construct: Primary human RPE cells were isolated as previously described; endogenous in cells; host or cells: primary human RPE cells
T1 sequence (P29466 120-297 limits assumed): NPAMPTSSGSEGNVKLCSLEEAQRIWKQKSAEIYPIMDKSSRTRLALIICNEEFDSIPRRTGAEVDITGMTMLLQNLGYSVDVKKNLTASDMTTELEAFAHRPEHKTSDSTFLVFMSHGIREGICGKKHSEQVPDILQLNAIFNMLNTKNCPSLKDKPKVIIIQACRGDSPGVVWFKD
T1 sequence (P29466 317-404 limits assumed): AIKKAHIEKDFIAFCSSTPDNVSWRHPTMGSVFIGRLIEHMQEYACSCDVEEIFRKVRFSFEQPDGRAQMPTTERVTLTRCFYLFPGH
Procedure: (§1) Protein abundance was assessed by Western blot analysis using antibodies against Caspase-1 (1:500; Invitrogen), pIRAK1 (1:500; Thermo Scientific), pIRAK4 (1:500, Abbomax), PYCARD (1:200, Santa Cruz Biotechnology), NLRP3 (1:500, Enzo Life Sciences) and Vinculin (1:1,000; Sigma-Aldrich). Caspase-1 activity was visualized using Caspalux1 E1D2 (Oncolmmunin) according to manufacturer's instructions.
(§2) Tissues or cells were homogenized in lysis buffer (10 mM Tris base, pH 7.4, 150 mM NaCl, 1 mM EDTA, 1 mM EGTA, 1% Triton X-100, 0.5% NP-40, protease and phosphatase inhibitor cocktail (Roche)). Protein concentrations were determined using a Bradford assay kit (Bio-Rad) with bovine serum albumin as a standard. Proteins (40-100 μg) were run on NuPAGE Bis-Tris gels (Invitrogen) and transferred to Immun-Blot PVDF membranes (Bio-Rad). Cells were scraped in hot Laemmli buffer (62.5 mM Tris base, pH 6.8, 2% SDS, 5% 2-Mercaptoethanol, 10% Glycerol, 0.01% Bromophenol Blue). Samples were boiled and run on 4-20% NuPAGE Tris-Glycine gels (Invitrogen). The transferred membranes were blocked for 1 h at RT and incubated with antibodies against human Caspase-1 (1:500; Invitrogen), mouse Caspase 1 (1:500; MBL), NLRP3 (1:1000; Enzo Life Sciences), PYCARD (1:1000, RayBiotech), phospho-IRAK1 (S376) (1:500, Thermo Scientific), phospho-IRAK4 (T345) (1:500, AbboMax), DICER1 (1:2,000; Bethyl), MyD88 (1:1,000; Cell Signaling), and mouse IL-18 (1:200; MBL) at 4° C. overnight. Protein loading was assessed by immunoblotting using an anti-Vinculin antibody (1:1,000; Sigma-Aldrich). The secondary antibodies were used (1:5,000) for 1 h at RT. The signal was visualized by enhanced chemiluminescence (ECL plus) and captured by VisionWorksLS Image Acquisition and Analysis software (Version 6.7.2, UVP, LLC).
Caspase-1 activity. Caspase-1 activity was visualized by incubating cells with Caspalux1E1D2 reagent (Oncolmmunin) according to the manufacturer's instructions. Caspalux1E1D2 signal was quantified reading the fluorescence (excitation 552 nm, emission 580 nm) using a Synergy 4 reader (Biotek). Quantification of fluorescence from images was performed by converting images into grayscale in Adobe Photoshop CSS, and measuring the integrated density of black and white images using ImageJ software (NIH) (Bogdanovich et al., 2008).

[2] = test system: RPE; assay: AAV1-BEST1-Cre-induced RPE degeneration in Dicer1 f/f mice; assay type: in vivo; details: peptide intravitreous
Procedure: Subretinal injections (1 μL) in mice were performed using a Pico-Injector (PLI-100, Harvard Apparatus). In vivo transfection of plasmids coding for two different Alu sequences (pAlu) or empty control vector (pNull) (Bennett et al., 2008; Kaneko et al., 2011; Shaikh et al., 1997) was achieved using 10% Neuroporter (Genlantis). AAV1-BEST1-Cre (Alexander and Hauswirth, 2008) or AAV1-BEST1-GFP were injected at 1.0×10^11 pfu/mL and in vitro transcribed Alu RNA was injected at 0.3 mg/mL. […]

[3] = test system: human RPE cells; assay: Loss of human RPE cell viability induced by DICER1 antisense; assay type: cell-based
[4] = test system: IRAK1/4 phosphorylation; assay: IRAK1/4 phosphorylation in human RPE cells (Western blot); assay type: cell-based; details: human RPE cells; normalized to Vinculin
Procedure: as §1, §2

Substance | Alu RNA-induced Caspase-1 substrate cleavage [1] | Alu RNA-induced Caspase-1 activation (p20 subunit) ([1]; Western blot) | AAV1-BEST1-Cre-induced RPE degeneration [2] | loss of human RPE cell viability induced by DICER1 antisense (AS) [3] | Alu RNA-induced IRAK1/4 phosphorylation [4] | Alu RNA-induced Caspase-1 substrate cleavage ([1]; listed as Caspase-1-inhibitory peptide) | Alu RNA-induced Caspase-1 substrate cleavage ([1]; listed as Caspase-1 inhibitor peptide)
DRQIKIWFQNRRMKWKKRDVLPGT [MyD88 inhibitory peptide] | does not reduce | unaffected | blocked | rescues | reduces | – | –
Z-WEHD-FMK | – | – | blocked | – | reduced | blocked Alu RNA-induced substrate cleavage | blocks
